Measurements published in patent publication US9346758B2, “Pyridinone compounds for use in photodynamic therapy” (UNIVERSITY OF EXETER, priority 2012, dated 2016).
Values joined by “and” are separate entries in the source; they are usually repeats but may differ in a detail not shown here. Equal entries are not always repeated.

What was measured:
[1] = tested on: MRC-5 (human embryonic lung fibroblast) cells; test: Toxicity testing: neutral red uptake (NRU) assay, inherent (dark) toxicity; conditions: 0.01% (v/v), positive control
Procedure: Control cells were incubated in standard cell culture medium.

[2] = tested on: human epithelial squamous cell carcinoma cells (A431); test: PpIX fluorescence accumulation; conditions: A431 cells;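 further: PpIX fluorescence accumulating inside A431 cells, read under dim light to limit photobleaching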
Procedure: (§1) Briefly, cells were seeded at 2×10^4 cells per well in a 96 well plate and left to adhere overnight. Test solutions were prepared on the day of the assay and applied to the cells. The level of PpIX produced was monitored using a multi-well fluorescent plate reader with a 400 (±30) nm excitation filter and a 645 (±40) nm emission filter, with the level of fluorescence produced being directly proportional to the level of PpIX present. Readings were taken hourly for 6 hours and were conducted under low light conditions to reduce photobleaching of PpIX.
These were tested alongside equimolar concentrations of ALA, ALA and CP94 (3), MAL, and MAL and CP94 (3), with all test compounds being investigated in human dermal fibroblasts (84BR; FIGS. 2A and 2B), human epithelial squamous cell carcinoma cells (A431; FIGS. 3A and 3B) and human glioblastoma cells (U87MG; FIGS. 4A and 4B).

[3] = tested on: human epithelial squamous cell carcinoma cells (A431); test: Cell viability (NRU assay) after irradiation with varying incubation periods (2, 3 or 4 hours); type: cell-based; conditions: A431 cells, then red light 37 J/cm^2, NRU assay, individual replicates
Procedure: Neutral red is an inert dye actively taken up and stored by viable (living) cells, an action which is unable to be performed by non-viable cells, therefore the level of neutral red taken up is directly proportional to the number of viable cells present following a given exposure. Following uptake of the dye, cells are lysed and the level of neutral red quantified using a plate reader.
After the relevant incubation period, the cells were irradiated with red light (37 J/cm^2; 635±2 nm; Aktilite, Galderma, UK).

[4] = tested on: human epithelial squamous cell carcinoma cells (A431); test: PpIX fluorescence after varying incubation periods (2, 3 or 4 hours); conditions: for PpIX fluorescence: A431 cells, individual replicates
Procedure: as §1

[5] = tested on: human dermal fibroblasts (84BR); test: PDT efficacy: cell viability (NRU assay) following irradiation
Procedure: (§2) To assess the effect of AP2-18 (8) on PpIX-induced PDT efficacy, the same three cell types were exposed to equimolar concentrations of ALA, ALA and CP94 (3), MAL, MAL and CP94 (3), and AP2-18 (8) (as described previously) and incubated in the dark for 4 hours. The level of PpIX accumulation was then quantified as before, prior to irradiation with red light (37 J/cm^2; 635±2 nm; Aktilite, Galderma, UK).

[6] = tested on: human glioblastoma cells (U87MG); test: as above; type: cell-based; conditions: 500 μM (combinations: 500 μM each), 4 h dark incubation, red light 37 J/cm^2, normalised to blank control
Procedure: as §2

[7] = tested on: human epithelial squamous cell carcinoma cells (A431); test: as above; type: cell-based; conditions: 4 h dark incubation, red light 37 J/cm^2, normalised to blank control
Procedure: as §2

[8] = 250 μM (each drug), incubation time 2 hours, 250 µM
[9] = 250 μM (each drug), incubation time 3 hours, 250 µM
[10] = 250 μM (each drug), incubation time 4 hours, 250 µM
[11] = 500 μM (each drug), incubation time 2 hours, 500 µM
[12] = 500 μM (each drug), incubation time 3 hours, 500 µM
[13] = 500 μM (each drug), incubation time 4 hours, 500 µM
[14] = 1000 μM (each drug), incubation time 2 hours, 1000 µM
[15] = 1000 μM (each drug), incubation time 3 hours, 1000 µM
[16] = 1000 μM (each drug), incubation time 4 hours, 1000 µM
[17] = 500 μM (each drug), incubation time 2 hours
[18] = 500 μM (each drug), incubation time 3 hours
[19] = 500 μM (each drug), incubation time 4 hours
[20] = 1000 μM (each drug), incubation time 2 hours
[21] = 1000 μM (each drug), incubation time 3 hours
[22] = 1000 μM (each drug), incubation time 4 hours

Row | Structure (SMILES) | cell viability [3, 8] | cell viability [3, 9] | cell viability [3, 10] | cell viability [3, 11] | cell viability [3, 12] | cell viability [3, 13] | cell viability [3, 14] | cell viability [3, 15] | cell viability [3, 16] | PpIX fluorescence [4, 17] | PpIX fluorescence [4, 18] | PpIX fluorescence [4, 19] | PpIX fluorescence [4, 20] | PpIX fluorescence [4, 21] | PpIX fluorescence [4, 22] | also measured
1 | OO [H2O2, hydrogen peroxide] | – | – | – | – | – | – | – | – | – | – | – | – | – | – | – | cell viability by NRU [1]: significant reduction in cell viability
2 | NCC(=O)CCC(=O)O [ALA, aminolevulinic acid] | 104.2825 and 103.9063 and 123.5695 and 112.4377 and 117.6227 and 97.71 and 44.14 and 34.7079 and 50.73 | 124.0654 and 135.6267 and 95.31 and 55.77 and 55.32 and 62.02 and 56.05 and 85.67 and 55.08 and 120.1384 and 57.18 and 77.31 | 82.01 and 64.97 and 20.14 and 125.0307 and 150.1618 and 127.1037 and 6.313 and 9.566 and 15.91 | 99.84 and 113.3557 and 112.7404 and 95.2285 and 69.94 and 82.25 and 65.56 and 62.54 and 64.53 | 118.05 and 77.38 and 69.99 and 77.18 and 78.53 and 70.11 and 42.15 and 44.3852 and 60.85 and 274.4678 and 51.1 and 55.1 | 67.69 and 28.73 and 8.056 and 111.2275 and 105.7573 and 29.3785 and 108.0828 and 59.78 and 39.7 | 87.3 and 106.5283 and 118.4391 and 110.6882 and 113.0739 and 122.8714 and 119.6405 and 111.0759 and 80.15 | 146.327 and 79.29 and 120.4428 and 43.82 and 38.85 and 34.8 and 39.79 and 27.42 and 54.75 and 57.2548 and 73.63 and 60.04 | 59.3 and 27.29 and 6.353 and 109.5082 and 86.85 and 18.6677 and 42.58 and 43.47 and 28.34 | −3.67 and −1.67 and −2.67 and 15.33 and 12.33 and 19.33 and 3.667 and 0.6667 and 5 | 7 and 9 and 6 and 27 and 24 and 32 and 2.667 (2×) and 4.667 | 22.67 and 25.67 and 27.67 and 38 and 36 and 43 and 5 and 4 and 6.667 | 1.33 and 9.33 and 14.33 and 12.33 and 15.33 and 16.33 and 8.333 and 6.333 and 9.667 | 14.33 and 25.33 and 26.33 and 27.33 and 28.33 and 32.33 and 12.33 and 10.33 and 9.333 | 32.33 and 45.33 (2×) and 43.33 and 38.33 (2×) and 12.33 (2×) and 12 | PpIX accumulation ([2]; 500 μM (each component), exposure time 4 hours): 22.67 and 25.67 and 27.67 and 38 and 36 and 43; PpIX accumulation ([2]; 500 μM (each component), exposure time 5 hours): 39.67 and 42.67 and 45.67 and 49.33 and 51.33; PpIX accumulation ([2]; 500 μM (each component), exposure time 6 hours): 52.33 and 55.33 and 61.33 and 61.67 and 62.67; PpIX accumulation ([2]; 1000 μM (each component), exposure time 4 hours): 32.33 and 45.33 and 43.33 and 38.33; PpIX accumulation ([2]; 1000 μM (each component), exposure time 5 hours): 50.67 and 63.67 and 60.67 and 51.67 and 54.67 and 57.67; PpIX accumulation ([2]; 1000 μM (each component), exposure time 6 hours): 63 and 79 and 72 and 65 and 68 and 75
3 | CCc1c(O)c(O)cc[n+]1CC.[Cl-] [CP94] | – | – | – | – | – | – | – | – | – | – | – | – | – | – | – | effect of iron chelator on PDT effect of ALA and MAL ([5]; 84BR, added to ALA or MAL): improved the PDT effect of both ALA and MAL in a concentration dependent manner; effect of iron chelator on PpIX levels ([4]; A431, added to the ALA or MAL incubation period): improved PpIX levels
4 | COC(=O)CCC(=O)CN [MAL, methyl aminolevulinate] | 78.63 and 100.9237 and 89.58 and 117.6227 and 107.2209 and 106.7755 and 45.7309 and 63.26 and 57.86 | 92.9 and 73.67 and 65.45 and 62.6519 and 51.74 and 54.37 and 33.36 and 40.45 and 63.31 and 38.2134 and 54.71 and 47.85 | 90.46 and 107.8629 and 109.4385 and 93.64 and 106.3667 and 111.1665 and 115.1445 and 124.4547 | 103.8357 and 110.62 and 117.5455 and 82.92 and 108.8432 and 82.89 and 99.5 and 114.8824 and 75.71 | 40.78 and 47.71 and 49.73 and 71.71 and 76.89 and 81.87 and 74.41 and 55.25 and 104.0986 and 49.38 and 75.04 and 67.4 | 90.24 and 110.2301 and 98.69 and 113.2846 and 104.0869 and 74.42 and 104.4856 and 97.36 and 135.6405 | 113.344 and 113.9162 and 113.1911 and 108.366 and 113.6783 and 85.84 and 45.89 and 39.15 and 53.82 | 93.27 and 84.83 and 88.71 and 39.35 and 38.5 and 43.01 and 59.91 and 53.88 and 52.9157 and 75.55 and 92.95 and 90.52 | 91.78 and 85.804 and 110.3323 and 138.7061 and 132.5587 and 155.8802 and 165.2883 and 91.73 and 106.1163 | −7.33 and 4.67 and −5.67 (2×) and −7.67 and 8.67 and −2.33 and 1.67 and 21 | −3.67 and −6.67 and 5.33 and −2.67 (2×) and 0.33 and 7.67 and −2.33 and 1.67 | −4.33 and −7.33 and 3.67 (2×) and 0.67 and 1.67 and 9 and 0 and 2 | 28 and 21 and 9.67 and 10.67 and 11.67 and −3.667 and 0.3333 and −8.333 and 51 | 45 and 50 and 42 and 22.67 and 25.67 and 20.67 and −3.333 and 0.6667 and −10.3333 | 70 and 74 and 64 and 34.33 and 39.33 and 30.33 and −2 and 4 and −8.333 | viability at 500 µM ([5]; Homo sapiens, Fibroblast, light or radiation study, 4 h, read-out: cell viability following irradiation, 84BR, 500 μM, 4 hours in the dark, red light 37 J/cm^2, NRU, normalised against blank control cells): 80.9%; viability at 1000 µM ([5]; Homo sapiens, Fibroblast, light or radiation study, 4 h, read-out: cell viability following irradiation, 84BR, 1000 μM, 4 hours in the dark, red light 37 J/cm^2, NRU, normalised against blank control cells): 97.3%; cell viability following irradiation [6]: 83.8% and 72.46% and 73.96% and 78.24% and 80.7%; viability at 500 µM ([6]; Homo sapiens, U-87 MG, light or radiation study, 4 h): 81.6%; cell viability following irradiation ([7]; 250 μM (combinations: 250 μM each)): 90.46% and 107.8629% and 109.4385% and 93.64% and 106.3667%; cell viability following irradiation ([7]; 500 μM (combinations: 500 μM each)): 90.24% and 110.2301% and 98.69% and 113.2846% and 104.0869% and 74.42%; viability at 250 µM ([7]; Homo sapiens, A-431, light or radiation study, 4 h, 250 μM (combinations: 250 μM each)): 110%
